{"source": "patent US8889678B2", "about": "“Acyl guanidine derivatives modulating the hedgehog protein signaling pathway” (Centre National de la Recherche Scientifique, priority 2009, dated 2014)", "key": {"[1]": {"test_system": "Hedgehog protein signaling pathway", "assay": "Inhibition of SAG-induced alkaline phosphatase activity (differentiation) in C3H10T1/2 cells", "assay_type": "cell-based", "settings": "read-out: IC50 (concentration which inhibits 50% of the alkaline phosphatase activity)", "experimental": "The compounds of formula (I) to be tested were dissolved in dimethyl sulfoxide until a concentration of 10 mM was obtained, and then stored at a temperature of −20° C. until use.\nThe pluripotent fibroblast cell line C3H10T1/2 was cultured under the conditions recommended by the American Type Culture Collection (ATCC).\nActivation with SAG causes the cell line to differentiate and allows the cells to express alkaline phosphatase. It was thus possible to measure the activity of the Hedgehog protein signaling pathway by measuring the alkaline phosphatase activity.\nThe C3H10T1/2 cells were seeded onto 96-well plates at a density of 5×10^3 cells per well, 24 hours before the addition of the test compounds at a concentration ranging from 1 nM to 30 μM and in the presence of 0.1 μM of SAG, using DMEM (Dulbecco's Modified Eagle's Medium) with 10% fetal calf serum, as culture medium. The tests were carried out in quadruplicate. The plates were then incubated for 5 to 6 days at a temperature of 37° C. under an atmosphere of 5% CO2. The cells were then washed in a cold phosphate buffer (Phosphate Buffered Saline: PBS), and then lysed by sonication at 4° C. in 50 μL of solution containing 0.9% of NaCl and 0.2% of Triton X-100."}, "[2]": {"molecular_target": "T1, mouse Smoothened receptor (Mus musculus, UniProt P56726)", "T1 construct": "expressed in transfected cells; host or cells: HEK293 cells, transiently transfected with Fugene6", "T1 sequence (P56726 33-793)": "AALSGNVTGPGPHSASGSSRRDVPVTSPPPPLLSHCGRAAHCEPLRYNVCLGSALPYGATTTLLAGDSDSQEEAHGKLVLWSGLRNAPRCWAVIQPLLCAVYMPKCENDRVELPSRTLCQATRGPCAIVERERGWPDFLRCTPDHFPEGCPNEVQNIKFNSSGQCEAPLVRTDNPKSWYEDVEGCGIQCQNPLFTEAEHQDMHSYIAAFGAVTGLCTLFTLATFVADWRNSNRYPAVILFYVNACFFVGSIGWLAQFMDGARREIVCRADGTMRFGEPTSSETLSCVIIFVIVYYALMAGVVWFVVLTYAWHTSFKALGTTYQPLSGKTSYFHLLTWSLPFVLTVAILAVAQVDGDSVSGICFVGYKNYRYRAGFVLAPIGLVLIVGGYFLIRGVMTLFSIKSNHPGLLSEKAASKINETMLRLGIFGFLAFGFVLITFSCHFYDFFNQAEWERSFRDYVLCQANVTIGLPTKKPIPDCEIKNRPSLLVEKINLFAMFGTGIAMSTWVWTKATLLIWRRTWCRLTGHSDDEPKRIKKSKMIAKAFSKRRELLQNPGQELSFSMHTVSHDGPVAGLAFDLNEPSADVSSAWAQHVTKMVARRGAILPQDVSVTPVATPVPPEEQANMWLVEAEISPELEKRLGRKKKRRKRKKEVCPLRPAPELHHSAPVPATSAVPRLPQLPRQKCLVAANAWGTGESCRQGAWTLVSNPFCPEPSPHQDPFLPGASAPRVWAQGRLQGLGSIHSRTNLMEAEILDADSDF", "assay": "Competition with bodipycyclopamine binding on HEK293 cells transfected with mouse Smoothened", "settings": "5 nM bodipycyclopamine, 2 hours at 37° C., read-out: IC50 (concentration which inhibits 50% of the bodipycyclopamine binding)", "method": "HEK293 cells are seeded at 70 000 cells per well onto glass cover slips treated with poly-D-lysine in a 24-well plate, and transfected the following day with 0.25 μg of plasmid encoding the mouse Smoothened protein using 0.7 μl of Fugene6 (Roche biochemicals) according to the protocol described by the supplier (i.e. 0.7 μl of Fugene 6 are added to 24 μl of DMEM without any additive, in each well. The mixture is then incubated for 5 minutes at ambient temperature, 0.25 μg of plasmid DNA are added, and then the whole is mixed and incubated for 20 to 30 minutes at ambient temperature. 25 μl of the mixture thus prepared are then added directly to the cell culture medium, in each well of the plate containing 24 wells). After 48 hours, the culture medium is removed, and the cells are rinsed once with 1 ml of a PBS (Phosphate Buffered Saline) phosphate buffer solution, and then fixed for 20 minutes in the presence of an ice-cold solution of paraformaldehyde (PFA) at 4%, and 0.12 M glucose in a PBS phosphate buffer solution. The cells are then rinsed once and washed twice for 5 minutes with 1 ml of a PBS phosphate buffer solution containing 0.5% of fetal calf serum (PBS-FCS). […] The cells are then washed twice for 5 minutes with 1 ml of PBS-FCS, then brought into contact with 1 ml of a 1×PBS phosphate buffer solution. Finally, the cover slips are mounted on a glass slide in the presence of Vectashield containing DAPI (4′,6′-diamidino-2-phenylindole) so as to label the cell nuclei (Vector). […] The fluorescence intensity is then analyzed using the Simple PCI 6.2 software (Hamamatsu Corporation), and then related to the surface area of the nuclei present on the photograph."}, "Shh pathway": {"test_system": "Shh pathway", "assay": "In vivo inhibition of Shh-induced Patched mRNA in the subventricular zone of adult mouse brain (in situ hybridization)", "settings": "adult mice, 4.5 pmol injected with recombinant Shh protein (290 ng) into the lateral ventricle, in situ hybridization 48 hours after injection", "experimental": "Adult male Swiss mice (8 weeks old, 35 g) were anesthetized with a mixture of ketamine (Mérial®, Lyon, France) (0.1 mg/g) and xylazine (Bayer®, Puteaux, France) (0.01 mg/g) by intraperitoneal (i. p.) injection. The recombinant Shh protein (290 ng in a buffer solution containing 150 mM of sodium chloride NaCl and 0.5 mM of dithitheritol DTT), was diluted in 4.5 μl of a solution of 2-hydroxypropyl-beta-cyclodextrin (HBC) at 45% in PBS optionally containing 4.5 pmol of Cur61414 or of compound 24. This mixture was injected stereotaxically into the right lateral ventricle (LV) (n=5 animals for each group), at the following coordinates given relative to the Bregma axis: anteroposterior+0.2 mm; lateral+0.8 mm; dorsoventral−2.5 mm. The reference atlas for the stereotaxic coordinates is: The mouse brain in stereotaxic coordinates, Georges Paxinos, Keith B. J., Franklin, 2nd edition, 2001, Academic Press (San Diego, United States).\nThe detection of the Patched messenger RNA by in situ hybridization was carried out 48 hours after the injection, as described by Traiffort et al., Eur. J. Neursci, 1999, 11, 3199-3214."}, "cells": {"test_system": "cells", "settings": "Borzillo et al., Curr. Top Med. Chem., 2005; cited from earlier work"}, "[3]": {"settings": "Mus musculus, C3H 10T1/2, after induction with 0.1 μM SAG"}}, "note": "Where two headings read alike, the source gives them in different places.", "data": [{"compound": "COc1cc(C(=O)NC(=N)Nc2ccc(C)c(NC(=O)c3ccc(-c4ccc(F)cc4)cc3)c2)cc(OC)c1OC", "note": "[Compound 30, 4′-fluoro-N-(2-methyl-5-(3-(3,4,5-trimethoxybenzoyl)-guanidino)phenyl)biphenyl-4-carboxamide]", "values": [{"measurement": "IC50", "setting": "[1]; [3]", "value": "3 to 30", "unit": "nM"}]}, {"compound": "COc1cc(C(=O)NC(=N)Nc2ccc(C)c(NC(=O)c3ccc(-c4ccccc4)cc3)c2)cc(OC)c1OC", "note": "[Compound 24, N-(2-methyl-5-(3-(3,4,5-trimethoxybenzoyl)guanidino)phenyl)-biphenyl-4-carboxamide]", "values": [{"measurement": "IC50", "setting": "[1]; [3]", "value": "3 to 30", "unit": "nM"}, {"measurement": "IC50", "setting": "[2]", "value": "3 to 30", "unit": "nM"}, {"measurement": "Induction of the Ptc gene messenger RNA in the subventricular zone", "setting": "Shh pathway", "value": "disappears"}]}, {"compound": "CS(=O)(=O)c1ccc(C(=O)Nc2ccc(Cl)c(-c3ccccn3)c2)c(Cl)c1", "note": "[GDC-0449, reference compound]", "values": [{"measurement": "IC50", "setting": "[1]; [3]", "value": "3 to 30", "unit": "nM"}]}, {"compound": "cyclopamine [reference compound]", "values": [{"measurement": "IC50", "setting": "[1]; after induction with 0.1 μM SAG", "value": "300 to 1000", "unit": "nM"}, {"measurement": "concentrations cytotoxic for cells", "setting": "cells", "value": "above 10 μM"}]}, {"compound": "COc1cc(C(=O)NC(=N)Nc2cccc(NC(=O)c3ccc(N4CCOCC4)cc3)c2)cc(OC)c1OC", "note": "[Compound 18, 3,4,5-trimethoxy-N—(N-(3-(4-morpholinobenzamido)phenyl)-carbamimidoyl)benzamide]", "values": [{"measurement": "IC50", "setting": "[1]; [3]", "value": "30 to 300", "unit": "nM"}]}, {"compound": "COc1cc(C(=O)NC(=N)Nc2cccc(-c3cc4ccccc4[nH]3)c2)cc(OC)c1OC", "note": "[Compound 19, N—(N-(3-(1H-indol-2-yl)phenyl)carbamimidoyl)-3,4,5-trimethoxybenzamide]", "values": [{"measurement": "IC50", "setting": "[1]; [3]", "value": "30 to 300", "unit": "nM"}, {"measurement": "melting point", "value": 149, "unit": "°C"}]}, {"compound": "COc1cc(C(=O)NC(=N)Nc2ccc(Cl)c(NC(=O)c3ccc(-c4ccccc4)cc3)c2)cc(OC)c1OC", "note": "[Compound 17, N-(2-chloro-5-(3-(3,4,5-trimethoxybenzoyl)guanidino)phenyl)-biphenyl-4-carboxamide]", "values": [{"measurement": "IC50", "setting": "[1]; [3]", "value": "30 to 300", "unit": "nM"}]}, {"compound": "COc1cc(C(=O)NC(=N)Nc2cccc(NC(=O)c3ccc(-c4ccc(F)cc4)cc3)c2)cc(OC)c1OC", "note": "[Compound 23, 4′-fluoro-N-(3-(3-(3,4,5-trimethoxybenzoyl)guanidino)phenyl)-biphenyl-4-carboxamide]", "values": [{"measurement": "IC50", "setting": "[1]; [3]", "value": "3 to 30", "unit": "nM"}, {"measurement": "IC50", "setting": "[2]", "value": "3 to 30", "unit": "nM"}]}, {"compound": "COc1cc(C(=O)NC(=N)Nc2cccc(-c3cn4ccsc4n3)c2)cc(OC)c1OC", "note": "[Compound 28]", "values": [{"measurement": "IC50", "setting": "[1]; [3]", "value": "300 to 1000", "unit": "nM"}]}, {"compound": "COc1cc(C(=O)NC(=N)Nc2ccc(Cl)c(C(=O)Nc3ccccc3)c2)cc(OC)c1OC", "note": "[Compound 21, N—(N-(4-chloro-3-(phenylcarbamoyl)phenyl)carbamimidoyl)-3,4,5-trimethoxybenzamide]", "values": [{"measurement": "IC50", "setting": "[1]; [3]", "value": "300 to 1000", "unit": "nM"}]}, {"compound": "COc1cccc(CN(C(=O)CC(C)(C)C)C2CC(C(=O)N3CCNCC3)N(Cc3ccc4c(c3)OCO4)C2)c1", "note": "(stereo not shown) [Cur61414, reference compound]", "values": [{"measurement": "IC50", "setting": "[1]; [3]", "value": "300 to 1000", "unit": "nM"}, {"measurement": "IC50", "setting": "[2]", "value": "30 to 300", "unit": "nM"}, {"measurement": "Induction of the Ptc gene messenger RNA in the subventricular zone", "setting": "Shh pathway", "value": "disappears"}]}, {"compound": "COc1cc(C(=O)NC(=N)Nc2ccc(Cl)c(NC(=O)Nc3ccccc3)c2)cc(OC)c1OC", "note": "[Compound 38, N—(N-(4-chloro-3-(3-phenylureido)phenyl)carbamimidoyl)-3,4,5-trimethoxybenzamide]", "values": [{"measurement": "melting point", "value": 127, "unit": "°C"}]}, {"compound": "COc1cc(C(=O)NC(=N)Nc2ccc(Cl)c(NC(=O)c3ccccc3)c2)cc(OC)c1OC", "note": "[Compound 16, N—(N-(3-benzamido-4-chlorophenyl)carbamimidoyl)-3,4,5-trimethoxybenzamide]", "values": [{"measurement": "IC50", "setting": "[1]; [3]", "value": "300 to 1000", "unit": "nM"}]}, {"compound": "COc1ccc(NC(=O)c2cc(NC(=N)NC(=O)c3cc(OC)c(OC)c(OC)c3)ccc2Cl)cc1", "note": "[Compound 20, N—(N-(4-chloro-3-(4-methoxyphenylcarbamoyl)phenyl)-carbamimidoyl)-3,4,5-trimethoxybenzamide]", "values": [{"measurement": "IC50", "setting": "[1]; [3]", "value": "300 to 1000", "unit": "nM"}, {"measurement": "melting point", "value": 105, "unit": "°C"}]}, {"compound": "COc1cc(C(=O)NC(=N)Nc2cccc(-n3ccc4ccccc43)c2)cc(OC)c1OC", "note": "[Compound 29, N—(N-(3-(1H-indol-1-yl)phenyl)carbamimidoyl)-3,4,5-trimethoxybenzamide]", "values": [{"measurement": "IC50", "setting": "[1]; [3]", "value": "300 to 1000", "unit": "nM"}]}, {"compound": "COc1cc(C(=O)NC(=N)Nc2ccc(C)c(C(=O)Nc3ccccc3)c2)cc(OC)c1OC", "note": "[Compound 22, 3,4,5-trimethoxy-N—(N-(4-methyl-3-(phenylcarbamoyl)phenyl)-carbamimidoyl)benzamide]", "values": [{"measurement": "IC50", "setting": "[1]; [3]", "value": "30 to 300", "unit": "nM"}]}, {"compound": "COc1cc(C(=O)NC(=N)Nc2cccc(NC(=O)c3ccccc3)c2)cc(OC)c1OC", "note": "[Compound 15, N—(N-(3-benzamidophenyl)carbamimidoyl)-3,4,5-trimethoxybenzamide]", "values": [{"measurement": "IC50", "setting": "[1]; [3]", "value": "300 to 1000", "unit": "nM"}]}]}
